From ChEMBL document CHEMBL1156829 (Proc Natl Acad Sci U S A, 2008)
Numbered stars: 1 amine (or outer) side, 2 acyl side, 3 side chain; on linkers, the order of the positions; unused ones are H or OH. Bridge positions count the residues as written; N and C are the ends. Square brackets hold non-standard residues; d marks the D form. Peptide text beside a SMILES is read from it. I, II: the chains in the order shown. ξ: configuration not given here. Actinocin(9to1) = Cc1c2oc3c(C)ccc(C(=O)[*:1])c3nc-2c(C(=O)[*:2])c(N)c1=O; ξNMeV = CNC(C(=O)O)C(C)C; ξT = CC(O)C(N)C(=O)O; ξP = O=C(O)C1CCCN1; Sar = CNCC(=O)O

Columns and labels:
[1] = NOVARTIS: Cytotoxicity against human hepatocellular carcinoma cell line (Huh7); format: toxicity, cell-based, Huh-7; conditions: Huh7 cells (hepatocellular carcinoma cell line)
Plasmodium falciparum [2] = assay: NOVARTIS: Inhibition of Plasmodium falciparum W2 (drug-resistant) proliferation in erythrocyte-based infection assay; format: functional, organism-based
Plasmodium falciparum [3] = assay: NOVARTIS: Inhibition of Plasmodium falciparum 3D7 (drug-susceptible) proliferation in erythrocyte-based infection assay; format: functional, organism-based
[4] = Plasmodium falciparum, W2, read-out: EC50

| Structure (SMILES) | CC50 [1] [nM] | EC50 (Plasmodium falciparum [2]; [4]) [nM] | EC50 (Plasmodium falciparum [3]; Plasmodium falciparum, 3D7) [nM] | EC50 (Plasmodium falciparum [2]; read-out: EC50) [nM] | EC50 (Plasmodium falciparum [3]) [nM] | EC50 (Plasmodium falciparum [2]) |
| --- | --- | --- | --- | --- | --- | --- |
| O=C(Cc1ccc(Cl)cc1)NNS(=O)(=O)c1ccc([N+](=O)[O-])cc1 | > 10000 | > 1370 | > 893 | – | – | – |
| CCN1CCCC1CNC(=O)CN1N=C(c2ccccc2)Cn2c(cc3ccccc32)C1=O (stereo not given) | > 10000 | > 1130 | > 1250 | – | – | – |
| CC[n+]1ccc(C=Cc2ccc(N(C)C)cc2)cc1 | > 84900 | – | – | > 4460 | 409 | – |
| O=C(CC(=O)N1CCOCC1)Nc1ccc2nc3n(c(=O)c2c1)CCCCC3 | > 100000 | 432 | > 10000 | – | – | – |
| CCOC(=O)C(=O)N1c2ccc(OCC)cc2-c2c(ssc2=S)C1(C)C | > 100000 | 25.2 | 252 | – | – | – |
| CCN(CC)CCCC(C)Nc1c2ccc(Cl)cc2nc2ccc(OC)nc12 (stereo not given) | > 6250 | 746 | 744 | – | – | – |
| O=c1c(=O)n(Cc2cccc(C(F)(F)F)c2)ccn1CCc1ccccc1 | > 10000 | > 1250 | > 673 | – | – | – |
| COc1ccc(Nc2c3c(nc4ccc(NC(=O)c5cc(=O)c6ccccc6o5)cc24)CCCC3)cc1OC | 11100 | 558 | 303 | – | – | – |
| O=C1CC(C(=O)N2CCC(c3nc(-c4cccnc4)ncc3-c3ccccc3)CC2)c2ccccc21 (stereo not given) | > 100000 | 150 | 459 | – | – | – |
| CC(C)CCNCC(O)Cn1c2ccccc2c2ccccc21 (stereo not given) | 8060 | 32.3 | 201 | – | – | – |
| COc1ccc(NC(=O)CCCCCn2c(SCc3cc(=O)oc4cc(O)ccc34)nc3ccsc3c2=O)cc1 | > 100000 | 2870 | 5820 | – | – | – |
| COc1ccc(-c2c[n+](Cc3ccc(Cl)cc3Cl)c3n2CCC3)cc1 | 31800 | 667 | 189 | – | – | – |
| Oc1c2c(nc3cc(-c4ccc(Cl)cc4)nn13)CCCC2 | > 100000 | > 12500 | 6480 | – | – | – |
| O=C1C(NC2CCCC2)=C(N2CCOCC2)C(=O)c2ccccc21 | 37900 | 139 | 119 | – | – | – |
| CN(CCCNc1ccnc2cc(Cl)ccc12)C(=O)c1cc(C(F)(F)F)cc(C(F)(F)F)c1 | > 10000 | < 10.4 | 86.8 | – | – | – |
| CCOC(=O)C1=C(C)NC2=C(C(=O)CC(c3ccc(OC)c(OC)c3)C2)C1c1ccccc1Cl (stereo not given) | > 100000 | 8.74 | 5.05 | – | – | – |
| c1ccc(-c2c3c(cc4ccccc24)C[N+]2(CCCC2)C3)cc1 | > 100000 | 1730 | 1340 | – | – | – |
| COc1ccc(C=Cc2ccc3ccccc3[n+]2C)cc1 | > 100000 | 7930 | > 5370 | – | – | – |
| N#CC(=Cc1ccccc1OCc1ccc(Cl)cc1Cl)c1nc2ccccc2[nH]1 | 5050 | 717 | 1130 | – | – | – |
| COc1ccc(N2CCN(c3ncnc4sc(C(=O)NCc5cccnc5)c(C)c34)CC2)cc1 | 20700 | > 8110 | > 11200 | – | – | – |
| O=[N+]([O-])c1cc(C(F)(F)F)ccc1N1CCCN(C(=S)Nc2cccc(C(F)(F)F)c2)CC1 | 55000 | 130 | 149 | – | – | – |
| COc1cc(C2c3[nH]c4ccccc4c3C[C@H]3C(=O)N(CCc4ccccc4)CC(=O)N23)cc(OC)c1OC (stereo not given in full) | > 100000 | 374 | 611 | – | – | – |

| Structure (SMILES) | CC50 [1] [nM] | EC50 (Plasmodium falciparum [2]; [4]) [nM] | EC50 (Plasmodium falciparum [3]; Plasmodium falciparum, 3D7) [nM] | EC50 (Plasmodium falciparum [2]; read-out: EC50) [nM] | EC50 (Plasmodium falciparum [3]) [nM] | EC50 (Plasmodium falciparum [2]) |
| --- | --- | --- | --- | --- | --- | --- |
| CCC1CCCCN1S(=O)(=O)c1cc(Br)cc2c1N(C(=O)C1CC1)CC2 (stereo not given) | > 100000 | 448 | 2840 | – | – | – |
| O=C(COc1cccc(Br)c1)NN=Cc1ccccc1F | > 10000 | > 1190 | > 1250 | – | – | – |
| CN(c1ccc(Cl)cc1)S(=O)(=O)c1ccc2[nH]cc(C(=O)NCCC3=CCCCC3)c(=O)c2c1 | > 10000 | > 911 | > 1250 | – | – | – |
| COC(=O)C1C(=O)C2=C(CC1C)NC(=O)CC2c1cccc(Cl)c1Cl (stereo not given) | > 100000 | 617 | 814 | – | – | – |
| CCOC(=O)c1cnc2c(OC)cccc2c1Nc1cc(C)c(Cl)cc1OC | > 10000 | > 1230 | 539 | – | – | – |
| CCCN[P+](CC(C)C)(NCCC)NCCC | 3340 | 398 | 211 | – | – | – |
| COc1ccc(C2=C(c3ccc(OC)cc3)C3C(=O)C2C2C(=O)N(c4cccc5ccccc45)C(=O)C32)cc1 (stereo not given) | > 10000 | > 1510 | > 1090 | – | – | – |
| CCCCCCCCCn1c2c(c(=N)c3c1CCC3)CCCC2 | 3740 | 185 | 132 | – | – | – |
| Cc1ccc(NC(=O)ON=C2CCCC2)cc1 | 45700 | 362 | 408 | – | – | – |
| COc1cccc(-c2ccc(O)c(CNC3CCCCCCC3)c2)n1 | 23100 | 20.3 | 71.9 | – | – | – |
| Cc1c2oc3c(C)ccc(C(=O)NC4C(=O)N[C@@H](C(C)C)C(=O)N5CCCC5C(=O)N(C)CC(=O)N(C)C(C(C)C)C(=O)OC4C)c3nc-2c(C(=O)NC2C(=O)N[C@H](C(C)C)C(=O)N3CCCC3C(=O)N(C)CC(=O)N(C)C(C(C)C)C(=O)OC2C)c(N)c1=O (stereo not given in full) (I: [ξT]V[ξP][Sar][ξNMeV] / II: [ξT][dV][ξP][Sar][ξNMeV]; ester I:1-I:C, II:1-II:C; linker I:N-II:N via Actinocin(9to1)) | 296 | 20.7 | 25.9 | – | – | – |
| CC1=CC[C@@H](/C(C)=C/c2csc(C)n2)OC(=O)C[C@H](O)C(C)(C)C(=O)[C@H](C)[C@@H](O)[C@@H](C)CCC1 | 6.21 | 25.8 | 85.4 | – | – | – |
| Cc1cc(N2CCN(C)CC2)nc2ccc(NC(=O)/C=C/c3ccc4c(c3)OCO4)cc12 | > 10000 | 292 | > 1250 | – | – | – |
| CCN1CCN(C(=O)Nc2ccc(Cc3ccc(NC(=O)N4CCN(CC)CC4)cc3)cc2)CC1 | 62000 | 1720 | 2390 | – | – | – |
| COc1ccc(/C=C\c2nc(=O)c3ccccc3o2)cc1 | > 10000 | 587 | 697 | – | – | – |
| COc1ccc(-c2c[n+](-c3ccccc3)c3n2CCS3)cc1 | > 10000 | 784 | 778 | – | – | – |
| O=c1[nH]c(N2CCCC2)nc2c1CCN(Cc1coc3ccccc3c1=O)C2 | > 10000 | > 896 | > 1250 | – | – | – |
| CC(=O)N(Cc1ccc(F)cc1)C1=C(NCc2ccccc2)C(=O)c2ccccc2C1=O | > 10000 | 679 | 680 | – | – | – |
| COc1cc(C(=O)NC2CC3CCC(C2)N3C2CC2)cc(OC)c1OC (stereo not given) | > 100000 | 487 | 450 | – | – | – |
| COc1ccc(-c2ccc(C(=O)N(C)Cc3cscn3)c(N3CCC(N4CCc5ccccc5C4)CC3)n2)cc1 | > 10000 | 1750 | > 1250 | – | – | – |
| Cc1ccc(C(=O)N(CCc2ccccc2)C(C)c2nc3ccccc3c(=O)n2-c2cccc(Cl)c2C)cc1[N+](=O)[O-] (stereo not given) | > 10000 | 887 | > 1620 | – | – | – |
| N=C(N)NN=Cc1cc(Cl)ccc1O | > 1860 | – | 12.8 | – | – | No fit |

| Structure (SMILES) | CC50 [1] [nM] | EC50 (Plasmodium falciparum [2]; [4]) [nM] | EC50 (Plasmodium falciparum [3]; Plasmodium falciparum, 3D7) [nM] | EC50 (Plasmodium falciparum [2]; read-out: EC50) [nM] | EC50 (Plasmodium falciparum [3]) [nM] | EC50 (Plasmodium falciparum [2]) |
| --- | --- | --- | --- | --- | --- | --- |
| N#CC(=Cc1cn(Cc2ccccc2Cl)c2ccccc12)c1nn(CCO)c(N)c1C#N | 44800 | 294 | 273 | – | – | – |
| Cc1ccccc1Oc1ccc(S(=O)(=O)NC(CC(C)C)C(=O)O)cc1 (stereo not given) | > 10000 | > 1250 | > 846 | – | – | – |
| CC1CN(C(=O)C(Cc2c[nH]c3ccccc23)NC(=O)CCl)CCN1C(=O)Nc1ccccc1 (stereo not given) | > 10000 | > 1250 | 289 | – | – | – |
| O=C(Nc1ccc(-n2cccn2)cc1)C1CCN(C/C=C/c2ccccc2)CC1 | > 10000 | 1540 | 464 | – | – | – |
| CCOC(=O)c1[nH]c2ccc(C)cc2c1N=NN(C)C | 26300 | 115 | 181 | – | – | – |
| CC(C)c1nc(N2CCN(C(=O)Nc3ccccc3)CC2)c(C#N)c2c1COC(C)(C)C2 | > 100000 | 67.7 | 53.8 | – | – | – |
| N/C(=N\C(=O)c1nc(Cl)c(N)nc1N)NCc1ccc(Cl)c(Cl)c1 [3',4' DICHLOROBENZAMIL] | 4590 | 283 | 89.6 | – | – | – |
| O=C(c1ccc([N+](=O)[O-])o1)N1CCN(c2cccc(Cl)c2)CC1 | > 100000 | 1040 | 6330 | – | – | – |
| Cc1ccc(C)c(Nc2nc(NCC3CCCO3)c3ccccc3n2)c1 (stereo not given) | 18600 | 1540 | 1530 | – | – | – |
| O=c1c2c3c(sc2[nH]c(=S)n1C1CCCCC1)CN(Cc1ccccc1)CC3 | > 10000 | > 1250 | > 1040 | – | – | – |
| CCOC(=O)C1=C(C)NC2=C(C(=O)CC(c3ccc(OC)cc3)C2)C1c1ccsc1 (stereo not given) | > 100000 | 62 | 302 | – | – | – |
| CCN1/C(=C/C2=CC(=C/c3sc4ccccc4[n+]3CC)/CC(C)(C)C2)C=Cc2ccccc21 | 42200 | 1030 | 486 | – | – | – |
| Cc1c2ccccc2cc(Cc2ccccc2)[n+]1C | > 100000 | 369 | 488 | – | – | – |
| CC(C(=O)NCCCN)N(Cc1ccccc1)S(C)(=O)=O (stereo not given) | > 10000 | 16.2 | > 1250 | – | – | – |
| CC(CC(=O)Oc1ccccc1-c1nc2ccccn2c1NC(C)(C)CC(C)(C)C)CC(C)(C)C (stereo not given) | 796 | 34.2 | 242 | – | – | – |
| CN(C)CCNCc1cc(-c2ccnc3cc(Cl)ccc23)ccc1O | 45600 | 152 | 120 | – | – | – |
| CCCC(c1nnnn1C1CCCCC1)N1CCN(C(=O)c2ccco2)CC1 (stereo not given) | > 100000 | 616 | 1330 | – | – | – |
| Cc1ccc(NC(C)C(=O)Nc2ccc(C#N)cc2)cc1S(=O)(=O)N1CCCCC1 (stereo not given) | 59500 | 446 | 406 | – | – | – |
| CN(C)c1ccc(/C=C/C(=O)NC(=O)c2ccccc2OC(=O)c2ccccc2)cc1 | > 10000 | 265 | 238 | – | – | – |
| O=C(C[n+]1cc(-c2ccccc2)n2c1CCC2)c1ccc(C2CCCCC2)cc1 | 17100 | 393 | 312 | – | – | – |
| Nc1ccc2nc3ccc(N)cc3[s+]c2c1 | 11600 | 143 | 85.7 | – | – | – |
